Data as given in ChEMBL document CHEMBL5331121, “Preferred Conformation-Guided Discovery of Potent and Orally Active HIF Prolyl Hydroxylase 2 Inhibitors for the Treatment of Anemia” (J Med Chem, 2023).
The source made the active and inactive calls. No cut-off for these calls is given here.

How the values were obtained:
[1] = biological target: Egl nine homolog 1 (Homo sapiens, UniProt Q9GZT9); assay: Binding affinity to […] PHD2 (181 to 426 residues) (unknown origin) by fluorescence polarization assay
Sequence of Egl nine homolog 1 (Q9GZT9 whole entry, the tested form may be a part): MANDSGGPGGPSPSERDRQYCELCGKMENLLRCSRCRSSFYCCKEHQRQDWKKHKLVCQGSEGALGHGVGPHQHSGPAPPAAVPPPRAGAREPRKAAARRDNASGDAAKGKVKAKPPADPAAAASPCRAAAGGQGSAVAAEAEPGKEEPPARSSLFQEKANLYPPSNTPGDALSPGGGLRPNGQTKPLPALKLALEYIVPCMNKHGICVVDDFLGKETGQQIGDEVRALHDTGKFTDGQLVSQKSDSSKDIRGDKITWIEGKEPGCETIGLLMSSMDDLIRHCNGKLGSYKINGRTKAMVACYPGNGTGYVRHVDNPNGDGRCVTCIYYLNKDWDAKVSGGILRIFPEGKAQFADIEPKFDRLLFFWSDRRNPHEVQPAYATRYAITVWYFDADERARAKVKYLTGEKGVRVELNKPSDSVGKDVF

[2] = test system: Mus musculus; assay: Upregulation of reticulocytes in C57BL/6J mouse at 10 mg/kg, po administered once daily for 3 days; format: functional, organism-based; details: time 3.0 day
[3] = biological target: Hypoxia-inducible factor 1-alpha (Homo sapiens) (UniProt Q16665); assay: Induction of HIF-1alpha stabilization in human Hep3B cells at 20 to 50 uM by Western blotting analysis; format: cell-based; details: dose 20-50 µM
Sequence of Hypoxia-inducible factor 1-alpha (Homo sapiens) (Q16665 whole entry, looked up, the tested form may be a part): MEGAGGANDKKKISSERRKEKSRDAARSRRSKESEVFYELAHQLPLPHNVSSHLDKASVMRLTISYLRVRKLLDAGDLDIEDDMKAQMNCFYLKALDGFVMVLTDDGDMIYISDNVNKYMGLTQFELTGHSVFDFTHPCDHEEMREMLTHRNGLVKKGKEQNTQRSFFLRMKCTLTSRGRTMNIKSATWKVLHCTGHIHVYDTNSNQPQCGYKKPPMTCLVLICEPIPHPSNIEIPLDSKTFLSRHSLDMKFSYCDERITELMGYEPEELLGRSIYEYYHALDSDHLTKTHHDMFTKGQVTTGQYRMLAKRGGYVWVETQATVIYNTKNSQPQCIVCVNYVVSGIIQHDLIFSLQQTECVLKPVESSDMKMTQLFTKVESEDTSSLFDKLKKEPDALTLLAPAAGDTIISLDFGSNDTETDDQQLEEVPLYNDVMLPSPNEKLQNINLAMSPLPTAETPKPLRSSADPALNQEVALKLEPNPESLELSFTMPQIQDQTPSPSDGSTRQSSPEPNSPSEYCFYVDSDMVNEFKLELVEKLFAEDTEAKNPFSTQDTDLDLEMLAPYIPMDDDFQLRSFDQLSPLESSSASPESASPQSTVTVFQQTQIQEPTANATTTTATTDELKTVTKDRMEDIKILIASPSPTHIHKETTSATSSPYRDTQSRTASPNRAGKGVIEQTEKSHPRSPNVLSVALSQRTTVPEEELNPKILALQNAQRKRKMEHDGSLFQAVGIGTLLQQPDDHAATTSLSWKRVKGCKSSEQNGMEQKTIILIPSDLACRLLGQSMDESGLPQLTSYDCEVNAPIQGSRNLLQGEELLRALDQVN

[4] = biological target: Endothelial PAS domain-containing protein 1 (Homo sapiens) (UniProt Q99814); assay: Induction of HIF-2alpha stabilization in human Hep3B cells at 20 to 50 uM by Western blotting analysis; format: cell-based; details: dose 20-50 µM
Sequence of Endothelial PAS domain-containing protein 1 (Homo sapiens) (Q99814 whole entry, the tested form may be a part): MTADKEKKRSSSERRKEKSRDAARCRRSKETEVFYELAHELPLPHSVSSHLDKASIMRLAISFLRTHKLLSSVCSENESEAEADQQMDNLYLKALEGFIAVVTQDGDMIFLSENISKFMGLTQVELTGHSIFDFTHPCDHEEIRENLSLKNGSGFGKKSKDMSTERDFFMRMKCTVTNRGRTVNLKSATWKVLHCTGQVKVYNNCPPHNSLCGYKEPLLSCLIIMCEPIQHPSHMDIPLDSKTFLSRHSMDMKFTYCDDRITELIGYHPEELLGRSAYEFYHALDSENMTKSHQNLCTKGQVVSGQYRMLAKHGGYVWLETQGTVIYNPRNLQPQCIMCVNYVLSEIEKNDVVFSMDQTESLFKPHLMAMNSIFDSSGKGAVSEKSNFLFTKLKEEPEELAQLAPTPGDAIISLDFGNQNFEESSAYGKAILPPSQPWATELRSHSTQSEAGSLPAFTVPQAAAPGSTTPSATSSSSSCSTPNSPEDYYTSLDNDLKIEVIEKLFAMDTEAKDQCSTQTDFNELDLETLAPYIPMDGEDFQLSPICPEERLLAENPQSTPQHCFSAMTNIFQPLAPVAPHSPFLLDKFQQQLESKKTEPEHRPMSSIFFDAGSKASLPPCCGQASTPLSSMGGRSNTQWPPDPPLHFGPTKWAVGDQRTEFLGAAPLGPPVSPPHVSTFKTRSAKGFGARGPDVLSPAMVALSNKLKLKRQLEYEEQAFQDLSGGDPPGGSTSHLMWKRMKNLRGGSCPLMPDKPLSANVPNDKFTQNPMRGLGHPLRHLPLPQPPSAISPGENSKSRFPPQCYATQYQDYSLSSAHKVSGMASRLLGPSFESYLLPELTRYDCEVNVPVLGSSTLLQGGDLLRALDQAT

[5] = test system: Erythrocyte; assay: Upregulation of reticulocytes in C57BL/6J mouse assessed as increase in RBC at 10 to 50 mg/kg, po administered once daily for 3 days; format: functional, organism-based; details: dose 10-50 mg/kg, time 3.0 day

Structure (SMILES) | IC50 [1] [nM] | also measured
O=C(O)CNC(=O)c1ncc(C2CCN(C(=O)CNc3ccc(Cl)c(Cl)c3)CC2)cc1O | 19.6 | Activity [2]: Active
Cc1nc(C(=O)NCC(=O)O)c(O)c2ccc(Oc3ccccc3)cc12 |  | Activity [2]: Active; Activity [3]: Active; Activity [4]: Active; Activity [5]: Dose-Dependent Effect
N#Cc1ccc(C(=O)N2CCC(c3cnc(C(=O)NCC(=O)O)c(O)c3)CC2)cc1 | 76.5 | 
O=C(O)CNC(=O)c1ncc(C2CCN(C(=O)c3cc(F)cc(F)c3)CC2)cc1O | 256 | 

Now from value to compound, other results behind:

IC50 [1] [nM] | Structure (SMILES) | also measured
195 | O=C(O)CNC(=O)c1ncc(C2CCN(C(=O)c3cccc(Cl)c3)CC2)cc1O | 
34.6 | Cc1ccc(C(=O)N2CCC(c3cnc(C(=O)NCC(=O)O)c(O)c3)CC2)cc1 | 
64.5 | Cc1ccc(NCC(=O)N2CCC(c3cnc(C(=O)NCC(=O)O)c(O)c3)CC2)cc1 | 
